According to patent publication US10961309B2, “Reducing systemic regulatory T cell levels or activity for treatment of disease and injury of the CNS” (Yeda Research and Development Co. Ltd, priority 2014, dated 2021):
Entries after “also recorded” stand apart in the source; their conditions may differ.

Tests used:
Assay type in all cases: in vivo, mouse
[1] = system: splenocytes (CD4+Foxp3+ Tregs, CD4+ IFN-γ+ T cells); assay: Flow cytometry of splenocytes; details: p300i 8.9 mg/kg/d i.p. 1 week vs vehicle (DMSO), aged mice (18 months), a day after cessation
Description: (§1) Mice were transcardially perfused with PBS, and tissues were treated as previously described (Baruch et al, 2013). Brains were dissected and the different brain regions were removed under a dissecting microscope (Stemi DV4; Zeiss) in PBS, and tissues were dissociated using the gentleMACS™ dissociator (Miltenyi Biotec). Choroid plexus tissues were isolated from the lateral, third and fourth ventricles of the brain, incubated at 37° C. for 45 min in PBS (with Ca^2+/Mg^2+) containing 400 U/ml collagenase type IV (Worthington Biochemical Corporation), and then manually homogenized by pipetting. Spleens were mashed with the plunger of a syringe and treated with ACK (ammonium chloride potassium) lysing buffer to remove erythrocytes. In all cases, samples were stained according to the manufacturers' protocols. All samples were filtered through a 70 μm nylon mesh, and blocked with anti-Fc CD16/32 (1:100; BD Biosciences). For intracellular staining of IFN-γ, the cells were incubated with […] (10 ng/ml; Sigma-Aldrich) and ionomycin (250 ng/ml; Sigma-Aldrich) for 6 h, and Brefeldin-A (10 μg/ml; Sigma-Aldrich) was added for the last 4 h. Intracellular labeling of cytokines was done with BD Cytofix/Cytoperm™ Plus fixation/permeabilization kit (cat. no. 555028). For Treg staining, an eBioscience FoxP3 staining buffer set (cat. no. 00-5523-00) was used. The following fluorochrome-labeled monoclonal antibodies were purchased from BD Pharmingen, BioLegend, R&D Systems, or eBiosciences, and used according to the manufacturers' protocols: PE or Alexa Fluor 450-conjugated anti-CD4; PE-conjugated anti-CD25; PerCP-Cy5.5-conjugated anti-CD45; FITC-conjugated anti-TCRβ; APC-conjugated anti-IFN-γ; APC-conjugated anti-FoxP3; Brilliant-violet-conjugated anti-CD45. Cells were analyzed on an LSRII cytometer (BD Biosciences) using FlowJo software. In each experiment, relevant negative control groups, positive controls, and single stained samples for each tissue were used to identify the populations of interest and to exclude other populations.

[2] = system: IFN-γ-expressing immune cells in the CP; assay: Flow cytometry of CP IFN-γ-expressing immune cells; details: p300i 1 week vs vehicle (DMSO), aged mice (18 months), a day after cessation
Description: as §1, with “For Treg staining, an eBioscience FoxP3 staining buffer set (cat. no. 00-5523-00) was used. The following fluorochrome-labeled monoclonal antibodies were purchased from BD Pharmingen, BioLegend, R&D Systems, or eBiosciences, and used according to the manufacturers' protocols: PE or Alexa Fluor 450-conjugated anti-CD4; PE-conjugated anti-CD25; PerCP-Cy5.5-conjugated anti-CD45; FITC-conjugated anti-TCRβ; APC-conjugated anti-IFN-γ; APC-conjugated anti-FoxP3; Brilliant-violet-conjugated anti-CD45.” left out, “In each experiment, relevant negative control groups, positive controls, and single stained samples for each tissue were used to identify the populations of interest and to exclude other populations.” left out

[3] = system: soluble Aβ1-40 and Aβ1-42; assay: Soluble Aβ (sAβ) protein quantification by ELISA
Description: Tissue homogenization and sAβ protein extraction was performed as previously described (Schmidt et al, 2005). Briefly, cerebral brain parenchyma was dissected and snap-frozen and kept at −80° C. until homogenization. Proteins were sequentially extracted from samples to obtain separate fractions containing proteins of differing solubility. Samples were homogenized in 10 volumes of ice-cold tissue homogenization buffer, containing 250 mM of sucrose, 20 mM of Tris base, 1 mM of ethylenediaminetetraacetic acid (EDTA), and 1 mM of ethylene glycol tetraacetic acid (pH 7.4), using a ground glass pestle in a Dounce homogenizer. After six strokes, the homogenate was mixed 1:1 with 0.4% diethylamine (DEA) in a 100-mM NaCl solution before an additional six strokes, and then centrifuged at 135,000 g at 4° C. for 45 min. The supernatant (DEA-soluble fraction containing extracellular and cytosolic proteins) was collected and neutralized with 10% of 0.5M of Tris-HCl (pH 6.8). Aβ1-40 and Aβ1-42 were individually measured by enzyme-linked immunosorbent assay (ELISA) from the soluble fraction using commercially available kits (Biolegend; #SIG-38954 and #SIG-38956, respectively) according to the manufacturer instructions.

Aβ plaques = assay: Aβ plaque quantitation (immunohistochemistry)
Description: Tissue processing and immunohistochemistry were performed on paraffin embedded sectioned mouse (6 μm thick) and human (10 μm thick) brains. For human ICAM-1 staining, primary mouse anti-ICAM (1:20 Abcam; ab2213) antibody was used. Slides were incubated for 10 min with 3% H2O2, and a secondary biotin-conjugated anti-mouse antibody was used, followed by biotin/avidin amplification with Vectastain ABC kit (Vector Laboratories). Subsequently, 3,3′-diaminobenzidine (DAB substrate) (Zytomed kit) was applied; slides were dehydrated and mounted with xylene-based mounting solution. For tissue stainings, mice were transcardially perfused with PBS prior to tissue excision and fixation. CP tissues were isolated under a dissecting microscope (Stemi DV4; Zeiss) from the lateral, third, and fourth ventricles of the brain. For whole mount CP staining, tissues were fixated with 2.5% paraformaldehyde (PFA) for 1 hour at 4° C., and subsequently transferred to PBS containing 0.05% sodium azide. Prior to staining, the dissected tissues were washed with PBS and blocked (20% horse serum, 0.3% Triton X-100, and PBS) for 1 h at room temperature. Whole mount staining with primary antibodies (in PBS containing 2% horse serum and 0.3% Triton X-100), or secondary antibodies, was performed for 1 h at room temperature. Each step was followed by three washes in PBS. The tissues were applied to slides, mounted with Immu-mount (9990402, from Thermo Scientific), and sealed with cover-slips. For staining of sectioned brains, two different tissue preparation protocols (paraffin embedded or microtomed free-floating sections) were applied, as previously described (Baruch et al, 2013; Kunis et al, 2013). The following primary antibodies were used: mouse anti-Aβ (1:300, Covance, #SIG-39320); rabbit anti-GFP (1:100, MBL, #598); rat anti-CD68 (1:300, eBioscience, #14-0681); rat anti-ICAM-1 (1:200, Abcam, #AB2213); goat anti-GFP (1:100, Abcam, #ab6658); rabbit anti-IBA-1 (1:300, Wako, #019-19741); goat anti-IL-10 (1:20, R&D systems, #AF519); rat anti-Foxp3 (1:20, eBioscience, #13-5773-80); rabbit anti-CD3 (1:500, Dako, #IS503); mouse anti-ZO-1, mouse anti-E-Cahedrin, and rabbit anti-Claudin-1 (all 1:100, Invitrogen, #33-9100, #33-4000, #51-9000); rabbit anti-GFAP (1:200, Dako, #Z0334). Secondary antibodies included: Cy2/Cy3/Cy5-conjugated donkey anti-mouse/goat/rabbit/rat antibodies (1:200; all from Jackson Immunoresearch). The slides were exposed to Hoechst nuclear staining (1:4000; Invitrogen Probes) for 1 min. Two negative controls were routinely used in immunostaining procedures, staining with isotype control antibody followed by secondary antibody, or staining with secondary antibody alone. For Foxp3 intracellular staining, antigen retrieval from paraffin-embedded slides was performed using Retreivagen Kit (#550524, #550527; BD Pharmingen™). Microscopic analysis, was performed using a fluorescence microscope (E800; Nikon) or laser-scanning confocal microscope (Carl Zeiss, Inc.). The fluorescence microscope was equipped with a digital camera (DXM 1200F; Nikon), and with either a 20× NA 0.50 or 40× NA 0.75 objective lens (Plan Fluor; Nikon). The confocal microscope was equipped with LSM 510 laser scanning capacity (three lasers: Ar 488, HeNe 543, and HeNe 633). Recordings were made on postfixed tissues using acquisition software (NIS-Elements, F3 [Nikon] or LSM [Carl Zeiss, Inc.]). For quantification of staining intensity, total cell and background staining was measured using ImageJ software (NIH), and intensity of specific staining was calculated, as previously described (Burgess et al, 2010). Images were cropped, merged, and optimized using Photoshop CS6 13.0 (Adobe), and were arranged using Illustrator CS5 15.1 (Adobe).
From each brain, 6 μm coronal slices were collected, and eight sections per mouse, from four different pre-determined depths throughout the region of interest (dentate gyrus or cerebral cortex) were immunostained. […]

[4] = two courses of p300i, interval of 1 month

SMILES: CC1=NN(c2ccc(C(=O)O)cc2)C(=O)/C1=C\c1ccc(-c2cc(C)c(C)cc2[N+](=O)[O-])o1 [p300i, 4-(4-((5-(4,5-dimethyl-2-nitrophenyl)furan-2-yl)methylene)-3-methyl-5-oxo-4,5-dihydro-1H-pyrazol-1-yl)benzoic acid]
- IFN-γ-expressing cells (CD4+ T cells) in the spleen [1]: elevated levels; also recorded: elevation
- IFN-γ-expressing immune cells in the CP [2]: elevated levels; also recorded: elevation
- cerebral sAβ levels ([3]; one course of p300i): effective in reducing cerebral sAβ
- cerebral sAβ levels [3, 4]: effective in reducing cerebral sAβ
- effect on sAβ1-42, repeated courses vs one course [3, 4]: stronger
- cerebral Aβ plaque load (Aβ plaques; p300i 1 week, examined 3 weeks later, 10-month old AD-Tg mice): significant reduction in cerebral Aβ plaque load
- cerebral plaque load (cortex 5th layer) (Aβ plaques; single course of p300i, examined 2 months later, AD-Tg mice age 7 months): reduction of cerebral plaque load was evident
- reduction of cerebral plaque load, two courses vs single course (Aβ plaques; two courses of p300i with a 1-month interval): stronger
